Experimental data reported in US7109380B2, “Cyclopentenedione antifungal compounds and methods for their use” (The University of Mississippi, priority 2004, dated 2006).
≈ marks a conversion by molar mass, not a printed value. Like-named read-outs stand apart in the source and are kept apart here.

Columns and labels:
[1] = tested on: Candida albicans ATCC 90028; experiment: In vitro antifungal susceptibility testing (modified NCCLS method), media pH 7.3; type: cell-based
[2] = tested on: Cryptococcus neoformans ATCC 90113; experiment: In vitro antifungal susceptibility testing (modified NCCLS method); type: cell-based; details: for MFC / MIC: ATCC90113
[3] = tested on: C. albicans ATCC 90028; experiment: In vitro antimicrobial assay (modified NCCLS), Candida media pH 4.5; type: cell-based, Candida albicans; details: Candida albicans
[4] = tested on: C. glabrata ATCC 90030; experiment: as above; type: cell-based, Candida glabrata; details: Nakaseomyces glabratus
[5] = tested on: Germinating Conidia of Fusarium moniliforme; experiment: Lethality bioassay on germinating conidia; type: cell-based; details: for viability at 5 µM / viability at 10 µM / viability at 15 µM / viability at 20 µM / viability at 25 µM / viability at 30 µM: Fusarium verticillioides, read-out: Percent of Control Mean (viable colonies, Fusarium moniliforme)
Experimental: (§1) Pathogen production. Stock slant isolates of Aspergillus flavus, Fusarium oxysporum, and Fusarium moniliforme were grown on potato dextrose agar (Difco, Detroit, Mich.) slants for 7 days at room temperature (22° C.).
(§2) Inoculum preparation. Prior to a bioassay, 4 ml of 1% potato dextrose broth (PDB, Difco, Detroit, Mich.), pH 4.86, was added to a stock culture slant. The conidia were suspended by gentle agitation using the pipette tip and the population determined with the use of a hemocytometer. The conidia were then diluted to a 10^4 conidia/ml concentration and incubated for 8 hrs at 22° C. to obtain germinating conidia that were used in the bioassays.
(§3) Experimental design of lethality bioassays to determine activity of coruscanone A. Coruscanone A was diluted in 100% methanol with a further dilution in PDB to achieve a stock concentration of 0.032 μg/μl. Test mixtures of germinating conidia and compound 67 were made in sterile 500 μl Eppendorf (Brinkman, Westbury, N.Y.) microcentrifuge tubes. Final test concentrations of compound 67 were 0, 5, 10, 15, 20, 25, and 30 μM in a final volume of 250 μl (0.0635 μg/μl=1.0 μM/250 μl). After an incubation of 30 min, 16 hours and 24 hours at 22° C., aliquots (50 μl) of the each sample were spread on each of 4 PDA plates. The plates were incubated at 22° C. for 2 days and the developed, viable colonies were enumerated. Separate bioassays were also set up at the same time as that with the 30 min incubation period but incubated at 22° C. for 16 and 24 hours, respectively. These samples were spread as previously described and the developing, viable colonies enumerated. Bioassays were performed on three separate occasions per fungus (n=12). Statistical analysis was performed using SigmaPlot 9.0 (p<0.05).

[6] = tested on: Germinating Conidia of Fusarium oxysporum; experiment: Lethality bioassay on germinating conidia; type: cell-based; details: for viability at 5 µM / viability at 10 µM / viability at 15 µM / viability at 20 µM / viability at 25 µM / viability at 30 µM: read-out: Percent of Control Mean (viable colonies, Fusarium oxysporum)
Experimental: as §1, §2, §3

[7] = tested on: Germinating conidia of Aspergillus flavus; experiment: Lethality bioassay on germinating conidia; type: cell-based; details: for viability at 5 µM / viability at 10 µM / viability at 15 µM / viability at 20 µM / viability at 25 µM / viability at 30 µM: read-out: Percent of Control Mean (viable colonies, Aspergillus flavus)
Experimental: as §1, §2, §3

COC(/C=C/c1ccccc1)=C1\C(=O)C=C(C)C1=O [Compound 1, coruscanone A]
Antifungal activity against C. albicans (in words) [1]: potent activity | MFC ([1]; ATCC90028, Candida albicans ATCC 90028, Table 1, read-out: MFC (Minimum Fungicidal Concentration)): 1.56 µg/mL (≈ 6.13 µM) | MIC ([1]; ATCC90028, Candida albicans ATCC 90028, Table 1, read-out: MIC (Minimum Inhibitory Concentration)): 0.78 µg/mL (≈ 3.07 µM) | Antifungal activity against C. albicans (in words) ([1]; listed as coruscanone A): comparable to or stronger than those of positive control drugs | MFC ([2]; Cryptococcus neoformans ATCC 90113, Table 1, read-out: MFC (Minimum Fungicidal Concentration)): 6.25 µg/mL (≈ 24.6 µM) | MIC ([2]; Cryptococcus neoformans ATCC 90113, Table 1, read-out: MIC (Minimum Inhibitory Concentration)): 6.25 µg/mL (≈ 24.6 µM) | IC50 ([2]; Cryptococcus neoformans, ATCC90113, read-out: IC50 (50% inhibitory concentration)): 1.5 µg/mL (≈ 5.9 µM) | MFC ([2]; Cryptococcus neoformans, Cr. neoformans ATCC 90113, Table 3, read-out: MFC): 2.5 µg/mL (≈ 9.83 µM) | MIC ([2]; Cryptococcus neoformans, Cr. neoformans ATCC 90113, Table 3, read-out: MIC): 2.5 µg/mL (≈ 9.83 µM) | IC50 ([3]; ATCC90028, pH 4.5, read-out: IC50 (50% inhibitory concentration)): 0.2 µg/mL (≈ 0.787 µM) | MFC ([3]; ATCC90028, C. albicans ATCC 90028, pH 4.5, Table 3, read-out: MFC): 0.63 µg/mL (≈ 2.48 µM) | MIC ([3]; ATCC90028, C. albicans ATCC 90028, pH 4.5, Table 3, read-out: MIC): 0.31 µg/mL (≈ 1.22 µM) | IC50 ([4]; ATCC90030, pH 4.5, read-out: IC50 (50% inhibitory concentration)): 2.5 µg/mL (≈ 9.83 µM) | MIC ([4]; ATCC90030, C. glabrata ATCC 90030, pH 4.5, read-out: MIC): 5 µg/mL (≈ 19.7 µM) | Concentration at and above which significant and increasing lethality was observed ([5]; Fusarium moniliforme, 16 and 24 hours of incubation): ≥ 5 µM | Lethality to germinating conidia (in words) ([5]; Fusarium moniliforme, 30 min incubation): not significantly lethal | viability at 5 µM ([5]; 0.5 h): 106% | viability at 10 µM ([5]; 0.5 h): 85.4% | viability at 15 µM ([5]; 0.5 h): 114% | viability at 20 µM ([5]; 0.5 h): 102% | viability at 25 µM ([5]; 0.5 h): 99.7% | viability at 30 µM ([5]; 0.5 h): 90.8% | viability at 5 µM ([5]; 16 h): 12.5% | viability at 10 µM ([5]; 16 h): 6.1% | viability at 15 µM ([5]; 16 h): 5.3% | viability at 20 µM ([5]; 16 h): 2.7% | viability at 25 µM ([5]; 16 h): 2.1% | viability at 30 µM ([5]; 16 h): 1.6% | viability at 5 µM ([5]; 24 h): 38.6% | viability at 10 µM ([5]; 24 h): 7.4% | viability at 15 µM ([5]; 24 h): 4.2% | viability at 20 µM ([5]; 24 h): 3.9% | viability at 25 µM ([5]; 24 h): 2.2% | viability at 30 µM ([5]; 24 h): 1.3% | viability at 5 µM ([6]; 0.5 h): 110% | viability at 10 µM ([6]; 0.5 h): 102% | viability at 15 µM ([6]; 0.5 h): 110% | viability at 20 µM ([6]; 0.5 h): 106% | viability at 25 µM ([6]; 0.5 h): 116% | viability at 30 µM ([6]; 0.5 h): 113% | viability at 5 µM ([6]; 16 h): 104% | viability at 10 µM ([6]; 16 h): 79.7% | viability at 15 µM ([6]; 16 h): 41.2% | viability at 20 µM ([6]; 16 h): 30.8% | viability at 25 µM ([6]; 16 h): 14.5% | viability at 30 µM ([6]; 16 h): 7.7% | Concentration at which significant and increasing lethality begins ([6]; 16 hour incubation): ≥ 15 µM | viability at 5 µM ([6]; 24 h): 80.2% | viability at 10 µM ([6]; 24 h): 56.7% | viability at 15 µM ([6]; 24 h): 35.2% | viability at 20 µM ([6]; 24 h): 19.4% | viability at 25 µM ([6]; 24 h): 10.9% | viability at 30 µM ([6]; 24 h): 4.3% | Concentration at and above which significantly and increasingly lethal ([6]; 24 hour incubation): ≥ 10 µM | Lethality to germinating conidia (in words) ([6]; any of the tested concentrations (time not given)): not lethal | viability at 5 µM ([7]; 0.5 h): 109% | viability at 10 µM ([7]; 0.5 h): 86.6% | viability at 15 µM ([7]; 0.5 h): 98% | viability at 20 µM ([7]; 0.5 h): 78.9% | viability at 25 µM ([7]; 0.5 h): 70% | viability at 30 µM ([7]; 0.5 h): 66.5% | viability at 5 µM ([7]; 16 h): 75.2% | viability at 10 µM ([7]; 16 h): 76.4% | viability at 15 µM ([7]; 16 h): 45.4% | viability at 20 µM ([7]; 16 h): 39.1% | viability at 25 µM ([7]; 16 h): 30.5% | viability at 30 µM ([7]; 16 h): 19.5% | viability at 5 µM ([7]; 24 h): 113% | viability at 10 µM ([7]; 24 h): 71.8% | viability at 15 µM ([7]; 24 h): 64.8% | viability at 20 µM ([7]; 24 h): 55.7% | viability at 25 µM ([7]; 24 h): 40.6% | viability at 30 µM ([7]; 24 h): 28.7% | Lethality to germinating conidia (in words) ([7]; after 24 hours of incubation, any tested concentration): no longer significantly lethal | Lethality to germinating conidia (in words) ([7]; incubated 30 min): not lethal
